Values quoted from earlier work, collected in patent US9393243B1 (priority 2015, dated 2016).
Where a name gives a salt, the structure may show the parent alone. Read-outs that look alike come from different tables or passages of the source.

Experiments:
[1] = aqueous solutions, about 0.2 to about 1 weight percent
[2] = system: a variety of bacterial pathogens; conditions: typical value; T. L. Ke et al. 2001

Row | Compound | pH at which precipitation was observed ([1]; 5° C.) | pH at which precipitation was observed ([1]; room temperature) | MIC90 [2]
1 | O=C(O)c1cn(C2CC2)c2cc(N3CCNCC3)c(F)cc2c1=O [ciprofloxacin HCl] | above 5 | above 5.5 | –
2 | gentamycin | – | – | around 10 μg/gm
3 | O=C(O)c1cn(C2CC2)c2cc(N3CCNCC3)c(F)cc2c1=O [ciprofloxacin, 1-cyclopropyl-6-fluoro-1,4-dihydro-4-oxo-7-(1-piperazinyl)-3-quinolinecarboxylic acid] | – | – | around 0.5 μg/g
